Laboratory results taken from patent EP0108147B1, “Use of a protoberberine alkaloid and composition containing same” (MAROKO, Peter R., priority 1982, dated 1983).

System: dogs with acute left ventricular failure
Assay: MUGR ejection fraction in dogs with acute left ventricular failure after coronary embolization
Format: in vivo
Details: for EF: 0.2 mg/Kg/min
Description: Nevertheless, to verify the response of dogs with acute heart failure with this sophisticated technique, this condition was provoked by previous embolization into the left coronary artery (as described below in protocol HV). thereafter, the effect of berberine infusion was analyzed after embolization. […] Berberine was infused in a rate of 0.2 mg/Kg/min for 30 minutes and MUGR was repeated after 2, 15, 22 and 28 minutes of infusion.
Six dogs were studied using this technique (Table XV). […] The thirty minute infusion of berberine (0.2 mg/Kg/min) was administered. During this period four radionuclide ventriculographies were obtained and averaged. After discontinuation of the infusion again four radionuclide ventriculographies were obtained in the next thirty minutes and averaged.

COc1ccc2cc3[n+](cc2c1OC)CCc1cc2c(cc1-3)OCO2 [berberine]
EF (another dog, at 2, 39 after embolization): 60% | EF (another dog, at 15): 62% | EF (one dog, 2 minutes of infusion, 27 after embolization): 35% | EF (one dog, 15 minutes): 37% | EF (one dog, 22 minutes): 39% | EF (one dog, 28 minutes): 38% | increase of EF (six dogs): ~50% | left ventricular ejection fraction (EF) (six dogs, during 30 minute infusion 0.2 mg/Kg/min, from 27 ± 3): 40 ± 3% | EF after the discontinuation of infusion (six dogs, next half an hour): continued to be significantly elevated
